Test results reported in patent US5888757A, “Cell wall assay” (Millennium Pharmaceuticals, Inc., priority 1996, dated 1999).

Key:
[1] = target: T1, CaCHS1p (chitin synthase of Candida albicans) (Candida albicans, UniProt P23316); assay: Chitin synthase inhibition assay (WGA capture / WGA-HRP detection of chitin synthesized in vitro); type: biochemical; conditions: inhibitor added over a range of concentrations, to a maximal concentration of 1 mM; FIG. 3
From the text: Preparation of CaCHS1p Membranes: In this example, chitin synthase was obtained from the S. cerevisiae strain 68-11-2C, transformed with the plasmid pJA16 (Bulawa et al., 1990, Proc. Natl. Acad. Sci. USA, 87:7424-7428 and Au-Young et al., 1990, Mol. Micro. 4:197-207). In strain 68-11-2C, the S. cerevisiae genes encoding chitin synthases 1 and 2 (CHS1 and CHS2, respectively) were genetically disrupted, rendering the strain deficient in production of these enzymes. The plasmid pJA16 encodes the chitin synthase gene of Candida albicans, and provides the only significant source of chitin in this assay.
Generally, the strain 68-1-2C/pJA16 is maintained on a supplemented SD medium. In this example, the cells were grown in 1 liter of SD medium for 48 hrs at 30° C. To provide good aeration, the culture was divided into two 500 ml cultures and grown in 2-liter flasks until the culture reached the stationary phase (i.e., until the OD600 of the culture reached 1.2-1.4). […] The cell walls then were broken by vortexing aliquots (2 ml) of the resuspended cells for 2 minutes with 3 ml of glass beads, according to conventional protocols. The cell extracts then were centrifuged for 5 minutes at 1,000×g, and the resulting supernatant was stored at -80° C. until it was used in the chitin synthase reactions described below. Frozen CaCHS1p membranes can be thawed at 30° C. […]

[2] = target: T1, CaCHS1p (chitin synthase of Candida albicans); conditions: known relative potency, Nikkomycin Z versus Asperfuran; cited from earlier work

T1 sequence (P23316 whole entry): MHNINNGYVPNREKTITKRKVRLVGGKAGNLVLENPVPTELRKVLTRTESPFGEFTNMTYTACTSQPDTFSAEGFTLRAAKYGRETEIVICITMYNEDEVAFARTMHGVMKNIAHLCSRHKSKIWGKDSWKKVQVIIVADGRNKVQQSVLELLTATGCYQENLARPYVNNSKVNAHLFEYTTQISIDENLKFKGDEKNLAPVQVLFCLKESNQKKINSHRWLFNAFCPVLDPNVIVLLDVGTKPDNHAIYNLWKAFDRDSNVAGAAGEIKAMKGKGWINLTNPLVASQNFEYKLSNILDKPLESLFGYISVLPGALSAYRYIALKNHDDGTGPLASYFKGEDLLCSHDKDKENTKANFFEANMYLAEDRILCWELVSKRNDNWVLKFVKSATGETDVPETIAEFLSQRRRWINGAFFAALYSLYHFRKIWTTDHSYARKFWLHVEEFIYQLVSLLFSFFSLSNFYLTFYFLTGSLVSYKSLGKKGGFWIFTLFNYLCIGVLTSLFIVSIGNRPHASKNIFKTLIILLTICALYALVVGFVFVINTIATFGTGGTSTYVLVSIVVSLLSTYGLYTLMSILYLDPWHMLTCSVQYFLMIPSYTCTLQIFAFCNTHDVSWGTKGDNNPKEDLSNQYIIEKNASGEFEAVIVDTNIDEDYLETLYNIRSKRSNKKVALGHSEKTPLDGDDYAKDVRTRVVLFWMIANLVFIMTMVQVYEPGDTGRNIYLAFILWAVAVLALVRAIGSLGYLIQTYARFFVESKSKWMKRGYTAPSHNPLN

Structure (SMILES) | inhibition of chitin synthase [1] | relative potency as inhibitor of CaCHS1p activity [2]
C[C@@H]([C@H](N)C(=O)N[C@H](C(=O)O)[C@H]1O[C@@H](n2ccc(=O)[nH]c2=O)[C@H](O)[C@@H]1O)[C@H](O)c1ccc(O)cn1 [Nikkomycin Z] | an increase in the concentration of either of these chitin synthase inhibitors causes an increase in the inhibition of chitin synthase | more potent inhibitor of CaCHS1p activity than is Asperfuran
C/C=C/C=C/[C@H]1Cc2cc(O)cc(O)c2O1 [Asperfuran] | an increase in the concentration of either of these chitin synthase inhibitors causes an increase in the inhibition of chitin synthase | 
